Laboratory results as given in patent EP1785417A2, “Novel non-psychotropic cannabinoids” (priority 2000, dated 2001).

Legend:
[1] = tested on: TNFα; test: Inhibition of TNFα in LPS-stimulated macrophage cell cultures (ELISA); format: cell-based; details: LPS-stimulated macrophages
Text: Evaluation of the therapeutic effects of the novel PRS-211 compounds has now been carried out in a series of experimental systems to support the utility of these drugs as neuroprotectants, anti-inflammatory agents and anti-oxidative agents. These effects have been evaluated both in vitro and in vivo, and have been corroborated utilizing the following systems: • (a) Binding to the NMDA receptor linked channel: Non competitive antagonists of NMDA, the primary example of which is the compound MK-801, bind to a site within the NMDA receptor channel thus preventing the activation of the receptor-channel complex and the consequent neurotoxicity. The ability of various compounds to compete with the binding of tritium labeled MK-801 to brain membranes is considered a measure of their potency as NMDA non-competitive antagonists. • (b) Inhibition of prostaglandin production: The inhibitory effect of the new derivatives of Dexanabinol on prostaglandin synthesis is evaluated in macrophage cell cultures following LPS exposure to induce the inflammatory response. These assays are an indication of the anti-inflammatory activity of the individual analogs. • (c) Inhibition of Tumor Necrosis Factor Alpha: Specific aspects of the inflammatory response cascade are mediated by the cytokine TNFα. Inhibition of TNFα production and/or inhibition of TNFα release by the new analogs are assayed in macrophage cell cultures activated with LPS. This serves as another indication of the general anti-inflammatory potential of the novel compounds. • (d) Nitric Oxide Assay: As one aspect of the anti-oxidative potential of the novel analogs they were tested for their ability to inhibit the enzyme nitric oxide synthase (NOS). This assay can also serve as another indication of the anti-inflammatory cascade, as well as the anti-oxidative mechanisms. • (e) Ear Edema model: The anti-inflammatory activity of the new analogs is screened using an ear edema model in mice. This test system utilizes Croton oil or Arachidonic acid as inflammation inducers. The ability of the test compounds to prevent or diminish the inflammatory response to these stimulants is indicative of their systemic anti-inflammatory capability. • (f) Improved clinical outcome after closed head injury in rats: Severe head injury is associated with high mortality and severe neurological impairment. Animals subjected to head trauma in a controlled fashion serve as models in which to test drugs of therapeutic potential. Test compounds can be evaluated both for improved clinical outcome and for reduction of edema induced by closed head injury. The ability of compounds to reduce the severity of neurological symptoms and to reduce brain edema is considered a measure of their potency in reducing brain damage. • (g) Transient Middle cerebral artery occlusion (MCAo): The middle cerebral artery is the cerebral blood vessel most susceptible to stroke in humans. In animals, coagulation, permanent ligation or permanent placement of an occluding thread in the artery produces a permanent focal stroke affecting the MCA territory. Transient ligation or occlusion results in transient focal stroke. Both transient and permanent focal strokes result in varying degrees of edema and infarction in the affected brain regions. The ability of compounds to reduce the volumes of edema and infarction is considered a measure of their potential as anti-stroke treatment. • (h) Optic Nerve Crush: Application of mechanical pressure to the rat optical nerve results in crush injury of the axons, which is accompanied by immediate changes in oxidative metabolism and delayed axonal death and blindness. […]

[2] = tested on: rats following Closed Head Injury (CHI); test: Rat model of closed head injury (cerebral edema, NSS); format: in vivo; details: for Neurological score 1hr / ΔNSS 24hr / Neurological score 24hr / Water content Left / Water content Right: rats, CHI; for Neurological score 1hr: 1 hr after injury; for Neurological score 24hr: 24 hr after injury; for Water content Left / Water content Right: doses of 5-10 mg/kg
Protocol: The cerebroprotective effect of PRS-211 compounds was assessed in a model of head trauma (HT) in rats. Injury was induced in anesthetized rats by a weight-drop device followed by a recovery period of up to 48 hours. This type of trauma produces brain edema (i.e. increase in water content, decrease in specific gravity in the brain), breakdown of the blood brain barrier (BBB) and clinical dysfunction. The clinical status of the rats was evaluated 1, 24 and 48 hours after injury along with measuring the extent of cerebral edema. The neurological deficit, assessed by a set of criteria termed the Neurological Severity Score (NSS), is maximal at 1 hour after the initiation of head trauma. The NSS slowly decreases over time from the initiation of HT, with the gradual spontaneous recovery of the rats.
The model was described in detail by Shapira et al., Crit. Care Med. 16:258-265, 1988. Rats were subjected to head trauma (HT) by a weight-drop device and surviving rats were followed up after one week. During that period they had free access to food and water, and were kept 2-3 rats to a cage. At any predesignated time (15 min, 1, 4, 24, 48 hrs, etc.) rats were sacrificed. Their brains were then rapidly removed and cortical tissue taken to determine water content, ions and the metabolites of interest at any particular metabolic cascade studied. During the recovery period, the clinical status was evaluated by a set of criteria (NSS).
Trauma induced a significant decrease in specific gravity (SG) of brain tissue and increase in water content following head injury. Edema developed since more water accumulates in either the extracellular (vasogenic) or intracellular (cytotoxic) spaces. The methods employed to determine edema are based on linear gradient columns of bromobenzene and kerosene (for SG) and for water content on drying the tissue in a desiccated oven. Tissue pieces (20 mg each) were placed on top of the column and the SG calculated from the equilibrium position in the column, using a standard curve.
The effect of PRS-211 analogs was calculated by the percent edema formation, where 100% was taken as edema in control, non-treated rats. Thus, the reduction in the SG was calculated as follows: SG(sham)-SG(drug)/SG(sham)-SG(cont) × 100 [formula] The increase in water content was calculated as follows: [%H2O(drug-%H2 O(sham)/%H2 O(cont)-%H2 O(sham)] × 100 [formula] All results presented in the table are statistically different (p<0.05) from control, traumatized vehicle treated rats.

| Structure (SMILES) | inhibition at 10 µM [1] [%] | edema formation and BBB disruption ([2]; given 30 min before, immediately after, or 1 and 2 hours after HT) | edema and clinical outcome ([2]; one dose of 5 mg/kg given 1 hour after the impact, measured 24 hours after HT) | Neurological score 1hr [2] | ΔNSS 24hr [2] | Neurological score 24hr [2] | Water content Left [2] | Water content Right [2] |
| --- | --- | --- | --- | --- | --- | --- | --- | --- |
| CCCCCCC(C)(C)c1cc(O)c2c(c1)OC(C)(C)[C@H]1CC=C(Cn3ccnc3)C[C@H]21 (single isomer, unassigned) [211,095-000] | 11 | significantly reduces edema formation and BBB disruption | effectively reduced edema and improved the clinical outcome | 11.9 ±0.6 | 6.5 ±0.45 | 5.4 ±0.5 | 82.89 ±0.48 | 79.75 ±0.20 |
| CCCCCCC(C)(C)c1cc(O)c2c(c1)OC(C)(C)[C@H]1CC=C(CO)C[C@H]21 [211,007-000 HU-211, 1,1 dimethyl heptyl-(3 S,4S)-7-hydroxy-Δ^6-tetrahydrocannabinol, reference compound] | 33 | – | – | 11.7 ±0.7 | 5.5 ±0.42 | 6.3 ±0.6 | 83.09 ±0.51 | 79.37 ±0.30 |
